This assay deals with FACL19 (Mycobacterium tuberculosis, UniProt P9WQ51).

Consider `CC(C)(COP(=O)(O)OP(=O)(O)OC[C@H]1O[C@@H](n2cnc3c(N)ncnc32)[C@H](O)[C@@H]1OP(=O)(O)O)[C@@H](O)C(=O)NCCC(=O)NCCS` [compound 1, CoASH], for which the KM result was “Kinetic analysis of CoA formation by wild type FACL19 and FACL19i proteins”.

On to `Nc1ncnc2c1ncn2[C@@H]1O[C@H](COP(=O)(O)OP(=O)(O)OP(=O)(O)O)[C@@H](O)[C@H]1O` [compound 3, ATP], for which the KM entry is “no significant change in KM was observed for ATP”.

(Values after publication PMC2644305 (Nature chemical biology, 2009).)
